Assay results taken from PubChem BioAssay (NCI).
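Dose response: 5 concentrations. Exposure: 48 h. Format: 96-well plates. Endpoint: linear interpolation; highest concentration if not reached. Abbreviation: GI50, concentration required for 50% inhibition of growth. TGI: total growth inhibition.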

Tests used:
Test in all cases: inhibition of tumour cell growth, NCI panel, 48 h
SNB-19 CNS = test system: SNB-19 CNS
SF-295 CNS = test system: SF-295 CNS
U251 CNS = test system: U251 CNS
UO-31 renal = test system: UO-31 renal
HT29 colon = test system: HT29 colon
A498 renal = test system: A498 renal
RPMI-8226 leukemia = test system: RPMI-8226 leukemia
RXF 393 renal = test system: RXF 393 renal
MALME-3M melanoma = test system: MALME-3M melanoma
HS 578T breast = test system: HS 578T breast

| Compound | GI50 (SNB-19 CNS) | TGI (SNB-19 CNS) | GI50 (SF-295 CNS) | TGI (SF-295 CNS) | GI50 (U251 CNS) | TGI (U251 CNS) | GI50 (UO-31 renal) | TGI (UO-31 renal) | GI50 (HT29 colon) | TGI (HT29 colon) | GI50 (A498 renal) | GI50 (RPMI-8226 leukemia) | TGI (RPMI-8226 leukemia) | GI50 (RXF 393 renal) | TGI (RXF 393 renal) | GI50 (MALME-3M melanoma) | TGI (MALME-3M melanoma) | GI50 (HS 578T breast) | TGI (HS 578T breast) | TGI (A498 renal) |
| --- | --- | --- | --- | --- | --- | --- | --- | --- | --- | --- | --- | --- | --- | --- | --- | --- | --- | --- | --- | --- |
| COc1ccc(/C=C/c2cc(OC)c(OC)c(OC)c2)cc1NC(=O)/C=C/c1ccc(F)cc1 | 4.37 µM | > 100 µM | 1570 nM | 64.4 µM | 3.17 µM | > 100 µM | 2300 nM | > 100 µM | 2340 nM | 13.5 µM | 35.2 nM | 2100 nM | > 100 µM | 1410 nM | 4.88 µM | 3.87 µM | > 100 µM | 3.79 µM | > 100 µM | – |
| CCOC(=O)[C@@H](C)C[C@H](Cc1ccccc1)NC(=O)c1csc([C@@H](C[C@H](C(C)C)N(C)C(=O)[C@@H](NC(=O)[C@H]2C[C@H](O[Si](C)(C)C(C)(C)C)CCN2C)C(C)C)OC(C)=O)n1 | 0.299 µM | > 8.33 µM | 249 nM | 3.41 µM | 0.319 µM | > 4.18 µM | 440 nM | > 8.33 µM | 267 nM | 1.96 µM | 167 nM | 275 nM | 2.25 µM | 159 nM | 0.481 µM | 0.215 µM | > 8.33 µM | 0.217 µM | 1.35 µM | 0.89 µM |
| Cc1ccc(C(=O)c2oc3ccc4c(C)cc(=O)oc4c3c2C)cc1 | 5.98 µM | > 100 µM | 2190 nM | 30.2 µM | 3.64 µM | > 100 µM | 11400 nM | > 100 µM | 8900 nM | > 100 µM | 10100 nM | 7700 nM | > 100 µM | 13800 nM | 91 µM | 25.7 µM | > 100 µM | 19.4 µM | > 100 µM | > 100 µM |
| Clc1nc(Oc2ccccc2)nc(-c2cn(-c3ccccc3)c3ccccc23)n1 | 19 µM | 35.8 µM | > 44700 nM | > 61 µM | 2.53 µM | 6.36 µM | 3040 nM | 7.95 µM | 3360 nM | 11.5 µM | > 47600 nM | 3290 nM | 21.5 µM | 3800 nM | 10.7 µM | 1.89 µM | 4.82 µM | 4.66 µM | 18.7 µM | > 100 µM |
| COC(=O)CCC/C=C\C[C@H]1C=CC(=O)/C1=C/C[C@@H](O)CCc1cccc(C(F)(F)F)c1 | 4.04 µM | 16.6 µM | 2120 nM | 5.21 µM | 2.06 µM | 4.96 µM | 1730 nM | 3.29 µM | 2640 nM | 6.06 µM | 5930 nM | 2850 nM | 14 µM | 2080 nM | 3.79 µM | 2.47 µM | 8.1 µM | 12.2 µM | 50 µM | 18.2 µM |
| COc1cc(-c2cnn(C)c2)ccc1Nc1ncc2ccnc(N[C@@H](C)C(C)(C)C)c2n1 | > 82.3 µM | > 100 µM | > 63300 nM | > 100 µM | > 55.8 µM | > 100 µM | > 100000 nM | > 100 µM | > 50600 nM | > 100 µM | > 100000 nM | > 100000 nM | > 100 µM | 8980 nM | > 100 µM | > 66 µM | > 100 µM | > 79 µM | > 100 µM | > 100 µM |
| CC(=O)Oc1cc(C)ccc1[C@]1(C)CC[C@H](C)/C1=C\Br | 3.97 µM | 17.4 µM | 3960 nM | 13.2 µM | 4.92 µM | 16.6 µM | 8430 nM | 34 µM | 2450 nM | 5.06 µM | 5200 nM | 2710 nM | 8.09 µM | 3860 nM | 15.9 µM | 2.95 µM | 10.2 µM | 3.03 µM | 13.9 µM | 17.1 µM |
| COc1cc2c(cc1C)NC(=O)/C2=C\c1cc(OC)c(OC)c(OC)c1 | 91.9 µM | > 100 µM | 39500 nM | > 100 µM | 22.9 µM | > 100 µM | > 100000 nM | > 100 µM | > 100000 nM | > 100 µM | 31100 nM | > 100000 nM | > 100 µM | 14200 nM | 36.1 µM | 72.3 µM | > 100 µM | 58.3 µM | > 100 µM | > 100 µM |
| Nc1c(C(=O)c2ccccc2)sc2nc(-c3cccs3)ccc12 | 0.432 µM | 10.3 µM | 171 nM | 1.71 µM | 0.281 µM | 14.1 µM | 1130 nM | 15.2 µM | 365 nM | 3.3 µM | 185 nM | 513 nM | 17.6 µM | 317 nM | 1.63 µM | 1.19 µM | 12.6 µM | 0.474 µM | 12.7 µM | 3.91 µM |
| COc1cc2c(cc1OCc1ccccc1)N=C[C@@H]1C/C(=C/C(=O)NCCCN3C(=O)c4cccc5cccc(c45)C3=O)CN1C2=O | 0.348 µM | > 56.7 µM | 630 nM | 9.49 µM | 0.444 µM | > 100 µM | 2680 nM | > 20.7 µM | 825 nM | > 100 µM | 1450 nM | 432 nM | > 100 µM | 231 nM | 0.651 µM | 0.272 µM | 1.06 µM | 0.539 µM | 6.51 µM | 4.07 µM |
| COc1cc(/C=C/c2cc(C(F)(F)F)[nH]c(=O)n2)ccc1OCc1ccccc1F | 11.5 µM | 30.1 µM | 5070 nM | 22 µM | 5.23 µM | 18.5 µM | 13000 nM | 29.4 µM | 21500 nM | 43.6 µM | 1730 nM | 3850 nM | 27.1 µM | 2400 nM | 8.78 µM | 13.9 µM | 43.1 µM | 32 µM | > 100 µM | 8.6 µM |
| C=CC(=O)N1CCCC(n2nc(-c3ccc(Oc4ccccc4)cc3)c3c(N)ncnc32)C1 (centres undefined) | 9.14 µM | 22.3 µM | 7710 nM | 23.8 µM | 6.11 µM | 20.4 µM | 1400 nM | 13.5 µM | 5930 nM | 21 µM | 124 nM | 6570 nM | 31.2 µM | 2680 nM | 11.4 µM | 12.4 µM | 29.3 µM | 7.66 µM | 45.7 µM | 2.08 µM |
| CCCCCCC/C=C/[C@H]1O[C@]23C(=O)C[C@@]4(C[C@@H](OC5OC(CO)C(O)C(O)C5O)C[C@@H]4[C@H]2C=C1C)OC3=O (some centres undefined) | 5.25 µM | 10.2 µM | 5120 nM | 12.7 µM | 3.55 µM | 7.63 µM | 3610 nM | 7.57 µM | 4180 nM | 11.9 µM | 4780 nM | 1280 nM | > 33.3 µM | 4410 nM | 9.15 µM | 4.82 µM | 9.87 µM | 9.04 µM | > 33.3 µM | 9.43 µM |
| O=C(O)C1CCc2ccc3ccccc3c2C1c1cccc2ccccc12 (centres undefined) | – | 34.2 µM | – | 69.4 µM | – | 33.8 µM | – | 40.5 µM | – | 32.7 µM | – | – | > 100 µM | – | 39.6 µM | – | 50.4 µM | – | > 100 µM | 67.2 µM |
| Cc1cc(/C=C2\SC(=Nc3ccccc3)N(C3CCCC3)C2=O)c(C)n1-c1ccc(Cl)cc1 | > 100 µM | > 100 µM | > 100000 nM | > 100 µM | > 100 µM | > 100 µM | > 100000 nM | > 100 µM | > 100000 nM | > 100 µM | 295 nM | > 100000 nM | > 100 µM | > 100000 nM | > 100 µM | > 100 µM | > 100 µM | > 100 µM | > 100 µM | > 100 µM |
| CC1(C)C=CC[C@]2(C)[C@H]3CC[C@@H]4[C@H]5[C@H](C(=O)/C=C/c6cccnc6)CC[C@]5(CO)CC[C@@]4(C)[C@]3(C)CC[C@@H]12 | 1.49 µM | 2.84 µM | 1150 nM | 2.42 µM | 1.24 µM | 2.65 µM | 1210 nM | 2.45 µM | 1230 nM | 2.68 µM | 1370 nM | 843 nM | 5.35 µM | 1120 nM | 2.37 µM | 1.38 µM | 2.8 µM | 1.51 µM | 3.89 µM | 2.72 µM |
